These results are taken from patent publication US6380238B1, “Indoline derivatives as 5-HT2B and or 5-HTC receptor ligands” (Vernalis Research Limited, priority 1998, dated 2002).

For one data set, the target named is T1, human 5-HT2B receptors (Homo sapiens, UniProt P41595).
T1 construct: expressed in transfected cells; host or cells: CHO cell line
Nature of the data set: Binding to 5-HT2B receptor, [3H]-5-HT radioligand, CHO cell line. The protocol: (§1) 1. Binding to Serotonin Receptors
(§2) The binding of compounds of formula (I) to serotonin receptors was determined in vitro by standard methods. The preparations were investigated in accordance with the assays given hereinafter.
Method (b): For the binding to the 5-HT2B receptor the 5-HT2B receptors were radiolabeled with [^3H]-5-HT. The affinity of the compounds for human 5-HT2B receptors in a CHO cell line was determined according to the procedure of K. Schmnuck, C. Ullmer, P. Engels and H. Lubbert, FEBS Lett., 1994, 342, 85-90.

Data set [1] addresses T2, 5-HT2A receptor (Homo sapiens, UniProt P28223). Nature of the data set: Functional activity, FLIPR calcium assay in CHO cells expressing human 5-HT2A. In kind it is cell-based. Further details: expressed in transfected cells; host or cells: CHO cells. To be noted: for Emax: CHO, read-out: h5-HT2A Relative Efficacy (%). The method, then: (§3) The functional activity of compounds of formula (I) was assayed using a Fluorimetric Imaging Plate reader (FLIPR). CHO cells expressing the human 5-HT2C or human 5-HT2A receptors were counted and plated into standard 96 well microtitre plates on the day before testing to give a confluent monolayer. The cells were then dye loaded with the calcium sensitive dye, Fluo-3-AM. Unincorporated dye was removed using an automated cell washer to leave a total volume of 100 μL/well of assay buffer (Hanks balanced salt solution containing 20 mM Hepes and 2.5 mM probenecid). The drug (dissolved in 50 μL of the assay buffer) was added at a rate of 70 μL/sec to each well of the FLIPR 96 well plate during fluorescence measurements. The measurements were taken at 1 sec intervals and the maximum fluorescent signal was measured (approx 10-15 secs after drug addition) and compared with the response produced by 10 μM 5-HT (defined as 100%) to which it was expressed as a percentage response (relative efficacy). Dose response curves were constructed using Graphpad Prism (Graph Software Inc.).

Data set [2] deals with T3, 5-HT2C receptor (Homo sapiens, UniProt P28335).
T3 sequence (P28335 33-458): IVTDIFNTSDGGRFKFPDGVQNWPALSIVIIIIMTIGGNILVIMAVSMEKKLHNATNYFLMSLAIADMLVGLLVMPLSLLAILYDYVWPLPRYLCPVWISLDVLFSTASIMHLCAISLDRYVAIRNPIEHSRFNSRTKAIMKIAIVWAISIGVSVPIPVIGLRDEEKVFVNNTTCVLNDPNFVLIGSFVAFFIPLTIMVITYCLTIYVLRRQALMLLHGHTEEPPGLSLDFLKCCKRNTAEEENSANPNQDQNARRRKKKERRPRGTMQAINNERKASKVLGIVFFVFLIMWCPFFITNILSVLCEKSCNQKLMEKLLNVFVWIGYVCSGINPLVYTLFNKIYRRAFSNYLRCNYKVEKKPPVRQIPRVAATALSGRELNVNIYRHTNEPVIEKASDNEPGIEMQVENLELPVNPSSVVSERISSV
Nature of the data set: Functional activity, FLIPR calcium assay in CHO cells expressing human 5-HT2C. Particulars: for Emax: CHO, read-out: h5-HT2C Relative Efficacy (%). The class given is cell-based. Further details: expressed in transfected cells; host or cells: CHO cells. The method, then: as §3

The target in data set [3] is T3, 5-HT2C receptor. As to the kind of experiment: Binding to 5-HT2C receptor, [3H]-5-HT radioligand, CHO cell line. Further details: expressed in transfected cells; host or cells: CHO cell line. The method, then:
as §1, §2
Method (a): For the binding to the 5-HT2C receptor the 5-HT2C receptors were radiolabeled with [^3H]-5-HT. The affinity of the compounds for 5-HT2C receptors in a CHO cell line was determined according to the procedure of D. Hoyer, G. Engel and H. O. Kalkman, European J. Pharmacol., 1985, 118, 13-23.

For data set [4], the target named is T2, 5-HT2A receptor. Nature of the data set: Binding to 5-HT2A receptor, [125I]-DOI radioligand, CHO cell line. Further details: expressed in transfected cells; host or cells: CHO cell line. The method, then: as §1, §2
Method (c): For the binding to the 5-HT2A receptor the 5-HT2A receptors were radiolabeled with [^125I]-DOI. The affinity of the compounds for 5-HT2A receptors in a CHO cell line was determined according to the procedure of D. J. McKenna and S. J. Peroutka, J. Neurosci., 1989, 9, 3482-90.

Each structure is given as a SMILES string. Counter-ions that a name gives are not always drawn. Like-named read-outs stand apart in the source and are kept apart here.

Broadly, the Ki is a measure of affinity in units of concentration, obtained from inhibition or displacement. Usually EC50 stands for the midpoint of the concentration-response curve. By melting point is commonly meant the temperature of the solid-liquid transition.

T1 sequence (P41595 whole entry): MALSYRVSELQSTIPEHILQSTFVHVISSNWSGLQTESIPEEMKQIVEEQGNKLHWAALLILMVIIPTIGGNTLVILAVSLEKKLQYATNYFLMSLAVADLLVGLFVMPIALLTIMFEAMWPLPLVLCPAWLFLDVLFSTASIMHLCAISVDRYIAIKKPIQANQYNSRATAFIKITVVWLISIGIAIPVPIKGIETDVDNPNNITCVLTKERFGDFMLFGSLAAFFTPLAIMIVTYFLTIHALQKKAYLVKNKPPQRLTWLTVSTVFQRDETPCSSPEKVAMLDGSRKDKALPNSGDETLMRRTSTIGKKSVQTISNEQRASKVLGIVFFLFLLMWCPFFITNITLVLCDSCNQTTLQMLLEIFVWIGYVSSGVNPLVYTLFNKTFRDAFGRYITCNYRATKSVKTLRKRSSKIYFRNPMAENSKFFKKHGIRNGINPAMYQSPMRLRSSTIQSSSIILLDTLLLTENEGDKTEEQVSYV
T2 sequence (P28223 whole entry): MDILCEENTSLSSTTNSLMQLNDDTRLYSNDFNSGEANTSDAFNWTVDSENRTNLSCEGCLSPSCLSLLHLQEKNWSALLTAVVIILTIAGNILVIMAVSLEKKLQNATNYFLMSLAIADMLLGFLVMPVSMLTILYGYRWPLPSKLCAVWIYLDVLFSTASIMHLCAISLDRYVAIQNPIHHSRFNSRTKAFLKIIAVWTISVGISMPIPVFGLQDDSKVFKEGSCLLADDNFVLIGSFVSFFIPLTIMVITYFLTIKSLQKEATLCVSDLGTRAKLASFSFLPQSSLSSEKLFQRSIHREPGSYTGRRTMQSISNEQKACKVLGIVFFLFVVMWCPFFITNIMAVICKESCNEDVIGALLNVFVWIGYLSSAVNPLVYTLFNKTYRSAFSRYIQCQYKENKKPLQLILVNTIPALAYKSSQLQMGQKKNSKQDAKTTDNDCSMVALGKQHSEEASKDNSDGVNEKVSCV

On to `C[C@H](N)CN1CCc2ccc(Cl)cc21` [Example 10, (S)-1-(6-Chloroindolin-1-yl)-2-propylamine Fumarate], for which the Ki on human 5-HT2B receptors turned out to be 0.138 µM; on 5-HT2C receptor [3], 0.055 µM; at 5-HT2A receptor [4] it was 0.252 µM. Besides, the EC50 worked out at 2.21 µM at 5-HT2A receptor [1] and 0.125 µM on 5-HT2C receptor [2]. The values for the Emax on 5-HT2A receptor [1] and at 5-HT2C receptor [2] were 49% and 62%, respectively.
For `C[C@H](N)CN1CCc2ccc(C(F)(F)F)cc21` [Example 24], the Ki was determined as 0.148 µM at human 5-HT2B receptors, 0.235 µM on 5-HT2C receptor [3] and 1.87 µM on 5-HT2A receptor [4]. In addition, the figures for the EC50 at 5-HT2A receptor [1] and on 5-HT2C receptor [2] were 3.65 µM and 0.131 µM, respectively. Besides, the Emax at 5-HT2A receptor [1] stood at 33%; on 5-HT2C receptor [2] it was 72%.
On to `C[C@@H](N)CN1CCc2ccc(C(F)(F)F)cc21` [Example 26], for which the Ki at human 5-HT2B receptors came out at 0.761 µM; on 5-HT2C receptor [3], 1.16 µM; at 5-HT2A receptor [4], 1.26 µM.
For `C[C@H](N)CN1CCc2cc(F)c(F)cc21` (as salt: fumarate) [Example 22], the melting point was 165 °C (dec.).
For `C[C@H](N)CN1CCc2cc(F)c(F)cc21` [Example 22], the figures for the Ki on human 5-HT2B receptors, at 5-HT2C receptor [3] and on 5-HT2A receptor [4] were 0.092 µM, 0.26 µM and 0.325 µM, respectively. For the same compound, the results for the EC50 on 5-HT2A receptor [1] and at 5-HT2C receptor [2] were 2.57 µM and 0.083 µM, respectively. Also, the Emax came out at 57% at 5-HT2A receptor [1] and 87% at 5-HT2C receptor [2].
Consider `C[C@H](N)CN1CCc2cc(F)c(I)cc21` (as salt: fumarate) [Example 61, (S)-1-(5-Fluoro-6-iodoindolin-1-yl)-2-propylamine Fumarate], for which the melting point lay within 185 to 187 °C.
With `C[C@@H](CN1CCc2ccc(Br)cc21)NCC1CC1` (as salt: HCl), the melting point was 155 to 156 °C.
On the same count and under the same terms, the figure for `C[C@H](N)CN1CCc2ccc(F)cc21` (as salt: fumarate) [Example 9] is 150 to 153 °C.
The compound `NCCN1CCc2ccc(Cl)cc21` (as salt: fumarate) [Example 51, 2-(6-Chloroindolin-1-yl)-1-ethylamine Fumarate] registered a melting point of 195 to 196 °C.
Turning to `COc1ccc2c(c1)N(C[C@H](C)N)CC2` [Example 13], the Ki was 0.175 µM at human 5-HT2B receptors, 0.122 µM on 5-HT2C receptor [3] and 0.461 µM at 5-HT2A receptor [4]. The EC50 came out at 0.386 µM on 5-HT2A receptor [1] and 0.075 µM on 5-HT2C receptor [2]. The Emax on 5-HT2A receptor [1] turned out to be 72%; at 5-HT2C receptor [2] it was 74%.
Regarding `CC(C)CCN[C@@H](C)CN1CCc2ccc(Br)cc21` (as salt: HCl), the melting point is 161 to 163 °C.
In turn, `CCC(N)CN1CCc2ccc(Cl)cc21` (centres unmarked) (as salt: HCl) had a melting point of 188 to 192 °C.
On to `C[C@H](N)CN1CCc2cc(F)c(Br)cc21` [Example 25], for which the Ki at human 5-HT2B receptors is 0.022 µM; at 5-HT2C receptor [3] it was 0.063 µM; at 5-HT2A receptor [4] it was 0.156 µM. Further, the EC50 at 5-HT2A receptor [1] came out at 1.24 µM; at 5-HT2C receptor [2], 0.021 µM. Further, the Emax on 5-HT2A receptor [1] was found to be 57%; at 5-HT2C receptor [2] it was 81%.
In the case of `NCCN1CCc2ccc(Cl)cc21` [Example 51, 2-(6-Chloroindolin-1-yl)-1-ethylamine Fumarate], the Ki on human 5-HT2B receptors ([3H]-5-HT, human receptor, CHO cell line, read-out: Ki (2B)) was determined as 0.14 µM; at 5-HT2C receptor [3] ([3H]-5-HT, CHO cell line, read-out: Ki (2C)), 0.165 µM; at 5-HT2A receptor [4] ([125I]-DOI, CHO cell line, read-out: Ki (2A)), 1.11 µM. For the same compound, the figures for the Emax on 5-HT2A receptor [1] and at 5-HT2C receptor [2] were 45% and 88%, respectively. The EC50 at 5-HT2A receptor [1] (FLIPR, CHO cells, Fluo-3-AM, read-out: h5-HT2A EC50) is 1.89 µM; at 5-HT2C receptor [2] (FLIPR, CHO cells, Fluo-3-AM, read-out: h5-HT2C EC50), 0.036 µM.
In turn, `CC(N)CN1CCc2ccc(C(F)(F)F)cc21` (centres unmarked) (as salt: fumarate) showed a melting point of 154 to 158 °C.
`CSc1cc2c(cc1F)CCN2CC(C)N` (centres unmarked) (as salt: fumarate) [Example 30] came in with a melting point of 96 to 100 °C.
On to `C[C@H](N)CN1CCc2cc(F)c(C(F)(F)F)cc21` (as salt: fumarate) [Example 60, (S)-1-(5-Fluoro-6-trifluoromethylindolin-1-yl)-2-propylamine Fumarate], for which the melting point is 190 to 192 °C.
Consider `CCSc1cc2c(cc1F)CCN2C[C@H](C)N` (as salt: fumarate) [Example 31], for which the melting point lay within 164 to 168 °C.
In turn, `CC(N)CN1CCc2ccc(Cl)cc21` (racemic) (as salt: hydrochloride) [Example 1, (RS)-1-(6-Chloroindolin-1-yl)-2-propylamine Hydrochloride] came in with a melting point of 262 °C.
On the same count and under the same terms, the figure for `C[C@H](N)CN1CCc2cc(F)cc(Cl)c21` (as salt: fumarate) [Example 17] is 195 to 196 °C.
Regarding `C[C@H](N)CN1CCc2ccc(N3CCOCC3)cc21` (as salt: fumarate) [Example 49, (S)-1-[6-(4-Morpholinyl)indolin-1-yl]-2-propylamine Fumarate], the melting point was 188 to 191 °C (dec.).
Regarding `CC(N)CN1CCc2c(OCc3ccccc3)cccc21` (centres unmarked) (as salt: HCl), the melting point is 188 to 190 °C.
On to `C[C@H](N)CN1CCc2ccc(-c3cccnc3)cc21` (as salt: fumarate) [Example 47], for which the melting point is 155 °C (dec.).
The same measure, in the same setting: the figure for `C[C@H](N)CN1CCc2cccc(Br)c21` (as salt: fumarate) [Example 20] is 202 to 204 °C; for `COc1cccc2c1N(C[C@H](C)N)CC2` (as salt: fumarate) it is 155 to 156 °C (dec.); for `CN(C)CCN1CCc2ccc(Cl)cc21` (as salt: fumarate) it is 144 to 146 °C.
In turn, `C[C@@H](CN1CCc2ccc(Br)cc21)NCC1CCCCC1` (as salt: HCl) showed a melting point of 208 to 210 °C.
Regarding `C[C@@H](N)CN1CCc2ccc(Cl)c(Cl)c21` (as salt: fumarate), the melting point was 213 to 214 °C.
On to `COc1ccc2c(c1)N(CC(C)N)CC2` (racemic) (as salt: hydrochloride) [Example 2, (RS)-1-(6-Methoxyindolin-1-yl)-2-propylamine Hydrochloride], for which the melting point lay within 142 to 143 °C.
Turning to `CC(N)CN1CCc2ccc(OCc3ccccc3)cc21` (centres unmarked), the melting point is 178 to 179 °C.
Take `Cc1cccc2c1CCN2C[C@H](C)N` (as salt: fumarate) [Example 32]: the melting point was in the range of 161 to 162 °C.
On the same count and under the same terms, next, `C[C@@H](N)CN1CCc2cccc(Br)c21` (as salt: fumarate) [Example 19]: 197 °C; `C[C@H](N)CN1CCc2ccc(Cl)c(Cl)c21` (as salt: fumarate) [Example 23]: 176 to 178 °C; `C[C@H](N)CN1CCc2c(Cl)cccc21` (as salt: fumarate) [Example 38]: 190 to 192 °C.
Consider `C[C@H](N)CN1CCc2cc(F)c(Br)cc21` (as salt: fumarate) [Example 25], for which the melting point was 195 to 196 °C.
In turn, `NCCN1CCc2ccc(Br)cc21` (as salt: fumarate) [Example 50, 2-(6-Bromoindolin-1-yl)-1-ethylamine Fumarate] came in with a melting point of 203 to 206 °C.
